The text below walks through data of ChEMBL document CHEMBL5154644, “Design, Synthesis, and Structure-Activity Relationship Optimization of Pyrazolopyrimidine Amide Inhibitors of Phosphoinositide 3-Kinase γ (PI3Kγ)” (J Med Chem, 2022).

By IC50 is commonly meant the point on the concentration scale where inhibition reaches its midpoint. For orientation: inhibition means the percentage by which the read-out fell short of the control.

The structures appear in SMILES notation. Where only a bound is given, the exact number is not on record here.

Chain of Phosphatidylinositol 4,5-bisphosphate 3-kinase catalytic subunit alpha isoform (P42336 whole entry, canonical isoform): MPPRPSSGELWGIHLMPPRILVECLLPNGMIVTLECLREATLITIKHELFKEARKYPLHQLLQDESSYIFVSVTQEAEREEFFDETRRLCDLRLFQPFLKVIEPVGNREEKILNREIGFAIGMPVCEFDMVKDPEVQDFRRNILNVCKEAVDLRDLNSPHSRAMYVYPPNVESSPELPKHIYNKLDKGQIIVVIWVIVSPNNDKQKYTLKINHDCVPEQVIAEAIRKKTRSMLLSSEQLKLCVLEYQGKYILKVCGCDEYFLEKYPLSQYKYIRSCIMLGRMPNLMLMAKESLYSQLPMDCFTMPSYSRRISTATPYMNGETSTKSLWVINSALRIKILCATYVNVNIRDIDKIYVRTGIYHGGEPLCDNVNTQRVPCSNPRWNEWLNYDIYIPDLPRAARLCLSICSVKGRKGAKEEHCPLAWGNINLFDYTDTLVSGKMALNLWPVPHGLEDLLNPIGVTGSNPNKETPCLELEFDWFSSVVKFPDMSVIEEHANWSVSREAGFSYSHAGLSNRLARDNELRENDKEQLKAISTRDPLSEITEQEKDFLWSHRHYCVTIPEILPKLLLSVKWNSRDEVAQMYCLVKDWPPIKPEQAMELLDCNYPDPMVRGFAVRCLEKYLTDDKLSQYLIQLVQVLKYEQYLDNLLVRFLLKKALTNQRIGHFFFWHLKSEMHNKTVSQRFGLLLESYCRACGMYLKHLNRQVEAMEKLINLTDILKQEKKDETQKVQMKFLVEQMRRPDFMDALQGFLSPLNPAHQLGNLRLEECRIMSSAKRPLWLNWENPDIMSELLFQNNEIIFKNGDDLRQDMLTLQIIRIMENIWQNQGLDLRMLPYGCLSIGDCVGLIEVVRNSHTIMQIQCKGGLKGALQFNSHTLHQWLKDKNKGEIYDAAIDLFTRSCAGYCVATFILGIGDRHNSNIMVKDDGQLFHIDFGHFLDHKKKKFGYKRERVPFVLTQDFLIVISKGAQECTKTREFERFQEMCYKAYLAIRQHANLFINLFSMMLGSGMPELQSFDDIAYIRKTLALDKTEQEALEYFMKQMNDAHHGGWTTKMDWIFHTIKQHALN
Chain of CYP3A4 (P08684 whole entry): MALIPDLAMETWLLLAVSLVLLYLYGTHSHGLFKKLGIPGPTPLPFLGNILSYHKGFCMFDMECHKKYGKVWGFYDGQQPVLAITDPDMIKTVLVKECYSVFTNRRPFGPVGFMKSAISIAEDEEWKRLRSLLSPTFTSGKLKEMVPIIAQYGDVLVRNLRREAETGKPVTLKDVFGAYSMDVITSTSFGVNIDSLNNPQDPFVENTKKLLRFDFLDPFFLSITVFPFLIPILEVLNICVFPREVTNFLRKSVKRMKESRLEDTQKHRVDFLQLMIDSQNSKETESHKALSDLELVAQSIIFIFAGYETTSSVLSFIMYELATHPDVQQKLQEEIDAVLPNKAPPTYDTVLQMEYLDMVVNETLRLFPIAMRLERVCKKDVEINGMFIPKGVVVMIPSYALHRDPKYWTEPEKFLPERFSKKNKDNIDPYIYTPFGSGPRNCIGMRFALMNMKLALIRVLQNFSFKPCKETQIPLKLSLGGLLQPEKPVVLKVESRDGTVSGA

One data set is filed under the species Homo sapiens. Briefly: Selectivity ratio of IC50 for inhibition of PI3Kalpha (unknown origin) to IC50 for inhibition of PI3Kgamma (unknown origin).
Conditions: not given
Consider `Cc1cc(-c2ccn3nc(N)c(C(=O)N[C@@H]4CC[C@@H](O)C4)c3n2)cc2c1C(=O)N([C@@H](C)C1CC1)C2`, for which the Ratio IC50 was 33.

On to `Cc1cc(-c2ccn3nc(N)c(C(=O)N[C@H](C)CO)c3n2)cc2c1C(=O)N([C@@H](C)C1CC1)C2`, for which the Ratio IC50 came to 205.

Consider `Cc1cc(-c2ccn3nc(N)c(C(=O)N[C@H]4CC[C@H](O)CC4)c3n2)cc2c1C(=O)N([C@@H](C)C1CC1)C2`, for which the Ratio IC50 is 156.

For `C[C@@H](C1CC1)N1Cc2cc(-c3ccn4nc(N)c(C(=O)NC5CC5)c4n3)cc(C(F)(F)F)c2C1=O`, the Ratio IC50 was found to be 443.

In the next data set the target is T1, Phosphatidylinositol 4,5-bisphosphate 3-kinase catalytic subunit delta isoform (Homo sapiens, UniProt O00329).
T1 sequence (O00329 whole entry): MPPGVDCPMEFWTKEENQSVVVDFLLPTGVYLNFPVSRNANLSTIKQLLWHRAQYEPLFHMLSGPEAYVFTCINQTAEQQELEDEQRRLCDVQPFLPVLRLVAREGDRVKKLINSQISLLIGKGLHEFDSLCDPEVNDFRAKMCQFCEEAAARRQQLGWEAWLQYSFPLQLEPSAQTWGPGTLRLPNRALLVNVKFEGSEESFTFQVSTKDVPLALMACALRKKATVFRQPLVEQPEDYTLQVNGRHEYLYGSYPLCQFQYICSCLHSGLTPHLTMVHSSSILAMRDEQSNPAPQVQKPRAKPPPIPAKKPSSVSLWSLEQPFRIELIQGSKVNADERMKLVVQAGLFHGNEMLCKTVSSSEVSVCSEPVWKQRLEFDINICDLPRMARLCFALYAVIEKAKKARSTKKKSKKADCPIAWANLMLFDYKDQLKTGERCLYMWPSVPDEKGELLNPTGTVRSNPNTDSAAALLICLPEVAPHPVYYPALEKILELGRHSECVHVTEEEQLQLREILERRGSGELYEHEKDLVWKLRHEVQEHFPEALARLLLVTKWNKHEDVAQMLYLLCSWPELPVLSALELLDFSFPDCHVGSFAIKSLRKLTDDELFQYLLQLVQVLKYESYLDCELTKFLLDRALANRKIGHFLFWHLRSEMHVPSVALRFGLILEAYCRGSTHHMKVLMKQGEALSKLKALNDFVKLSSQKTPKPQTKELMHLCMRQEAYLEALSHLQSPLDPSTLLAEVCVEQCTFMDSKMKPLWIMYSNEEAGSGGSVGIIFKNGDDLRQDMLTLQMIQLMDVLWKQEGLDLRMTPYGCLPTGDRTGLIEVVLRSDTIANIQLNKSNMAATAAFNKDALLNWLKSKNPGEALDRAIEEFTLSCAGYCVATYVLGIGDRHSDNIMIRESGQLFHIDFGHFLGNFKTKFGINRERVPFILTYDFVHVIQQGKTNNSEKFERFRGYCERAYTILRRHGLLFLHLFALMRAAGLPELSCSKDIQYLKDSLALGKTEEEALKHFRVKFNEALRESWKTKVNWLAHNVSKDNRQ
The experiment in a line: Inhibition of PI3Kdelta (unknown origin) using PIP2 as substrate preincubated for 1 hr followed by substrate addition and measured after 60 mins in presence of ATP by ADP-glo assay.
Conditions: not given
Regarding `Cc1cc(-c2ccn3nc(N)c(C(=O)N[C@@H]4CC[C@@H](O)C4)c3n2)cc2c1C(=O)N([C@@H](C)C1CC1)C2`, the IC50 came out at 123 nM.

As for `Cc1cc(-c2ccn3nc(N)c(C(=O)N[C@H](C)CO)c3n2)cc2c1C(=O)N([C@@H](C)C1CC1)C2`, the 50% inhibitory concentration (IC50) is 1280 nM.

In the case of `Cc1cc(-c2ccn3nc(N)c(C(=O)N[C@H]4CC[C@H](O)CC4)c3n2)cc2c1C(=O)N([C@@H](C)C1CC1)C2`, the half-inhibitory concentration (IC50) was 61 nM.

As for `C[C@@H](C1CC1)N1Cc2cc(-c3ccn4nc(N)c(C(=O)NC5CC5)c4n3)cc(C(F)(F)F)c2C1=O`, the IC50 turned out to be 1950 nM.

Another data set has as its target Phosphatidylinositol 4,5-bisphosphate 3-kinase catalytic subunit alpha isoform (Homo sapiens, UniProt P42336). The experiment in a line: Inhibition of PI3Kalpha (unknown origin) using PIP2 as substrate preincubated for 1 hr followed by substrate addition and measured after 60 mins in presence of ATP by ADP-glo assay.
Conditions: not given
On the technique in general: ADP-Glo turns the ADP formed in a reaction into a luminescent signal.
In the case of `Cc1cc(-c2ccn3nc(N)c(C(=O)N[C@@H]4CC[C@@H](O)C4)c3n2)cc2c1C(=O)N([C@@H](C)C1CC1)C2`, the IC50 turned out to be 140 nM.

Regarding `Cc1cc(-c2ccn3nc(N)c(C(=O)N[C@H](C)CO)c3n2)cc2c1C(=O)N([C@@H](C)C1CC1)C2`, the half-inhibitory concentration (IC50) came out at 713 nM.

For the molecule `Cc1cc(-c2ccn3nc(N)c(C(=O)N[C@H]4CC[C@H](O)CC4)c3n2)cc2c1C(=O)N([C@@H](C)C1CC1)C2`, the IC50 is 188 nM.

On to `C[C@@H](C1CC1)N1Cc2cc(-c3ccn4nc(N)c(C(=O)NC5CC5)c4n3)cc(C(F)(F)F)c2C1=O`, for which the concentration for half-maximal inhibition (IC50) came out at 1580 nM.

Test system in another data set: not listed separately
The experiment in a line: Hepatic clearance in Sprague-Dawley rat by LC-MS/MS analysis. Type of data set: ADME. The note with it: in vivo.
In the case of `Cc1cc(-c2ccn3nc(N)c(C(=O)N[C@@H]4CC[C@@H](O)C4)c3n2)cc2c1C(=O)N([C@@H](C)C1CC1)C2`, the CLH worked out at 71.7 mL/min/kg.

In turn, `Cc1cc(-c2ccn3nc(N)c(C(=O)N[C@H](C)CO)c3n2)cc2c1C(=O)N([C@@H](C)C1CC1)C2` registered a CLH of 15 mL/min/kg.

In turn, `Cc1cc(-c2ccn3nc(N)c(C(=O)N[C@H]4CC[C@H](O)CC4)c3n2)cc2c1C(=O)N([C@@H](C)C1CC1)C2` yielded a CLH of 50 mL/min/kg.

With `C[C@@H](C1CC1)N1Cc2cc(-c3ccn4nc(N)c(C(=O)NC5CC5)c4n3)cc(C(F)(F)F)c2C1=O`, the CLH turned out to be 5 mL/min/kg.

Test system in the next data set: not listed separately
Briefly: Metabolic stability in human hepatocytes assessed as intrinsic clearance per 10^6 cells at 0.5 uM by LC-MS/MS analysis. Type of data set: ADME, cell-based, Hepatocyte. The note with it: read-out: CLH.
For `Cc1cc(-c2ccn3nc(N)c(C(=O)N[C@@H]4CC[C@@H](O)C4)c3n2)cc2c1C(=O)N([C@@H](C)C1CC1)C2`, the hepatocyte CLint at 0.5 µM came out at 3.26 µL/min/1e6 cells.

On to `Cc1cc(-c2ccn3nc(N)c(C(=O)N[C@H](C)CO)c3n2)cc2c1C(=O)N([C@@H](C)C1CC1)C2`, for which the hepatocyte CLint at 0.5 µM was 1.31 µL/min/1e6 cells.

As to `Cc1cc(-c2ccn3nc(N)c(C(=O)N[C@H]4CC[C@H](O)CC4)c3n2)cc2c1C(=O)N([C@@H](C)C1CC1)C2`, the hepatocyte CLint at 0.5 µM came to 4.76 µL/min/1e6 cells.

For `C[C@@H](C1CC1)N1Cc2cc(-c3ccn4nc(N)c(C(=O)NC5CC5)c4n3)cc(C(F)(F)F)c2C1=O`, the hepatocyte CLint at 0.5 µM is under 1.2 µL/min/1e6 cells.

The next data set is filed under the species Homo sapiens. The experiment in a line: Selectivity ratio of IC50 for inhibition of PI3Kdelta (unknown origin) to IC50 for inhibition of PI3Kgamma (unknown origin).
Conditions: not given
Consider `Cc1cc(-c2ccn3nc(N)c(C(=O)N[C@@H]4CC[C@@H](O)C4)c3n2)cc2c1C(=O)N([C@@H](C)C1CC1)C2`, for which the Ratio IC50 came out at 29.

With `Cc1cc(-c2ccn3nc(N)c(C(=O)N[C@H](C)CO)c3n2)cc2c1C(=O)N([C@@H](C)C1CC1)C2`, the Ratio IC50 turned out to be 415.

`Cc1cc(-c2ccn3nc(N)c(C(=O)N[C@H]4CC[C@H](O)CC4)c3n2)cc2c1C(=O)N([C@@H](C)C1CC1)C2`: the Ratio IC50 was 51.

With `C[C@@H](C1CC1)N1Cc2cc(-c3ccn4nc(N)c(C(=O)NC5CC5)c4n3)cc(C(F)(F)F)c2C1=O`, the Ratio IC50 amounted to 547.

The target in another data set is T2, Phosphatidylinositol 4,5-bisphosphate 3-kinase catalytic subunit gamma isoform (Homo sapiens, UniProt P48736). Briefly: Inhibition of PI3Kgamma (unknown origin) using PIP2 as substrate preincubated for 1 hr followed by substrate addition and measured after 60 mins in presence of ATP by ADP-glo assay.
T2 sequence (P48736 whole entry, canonical isoform): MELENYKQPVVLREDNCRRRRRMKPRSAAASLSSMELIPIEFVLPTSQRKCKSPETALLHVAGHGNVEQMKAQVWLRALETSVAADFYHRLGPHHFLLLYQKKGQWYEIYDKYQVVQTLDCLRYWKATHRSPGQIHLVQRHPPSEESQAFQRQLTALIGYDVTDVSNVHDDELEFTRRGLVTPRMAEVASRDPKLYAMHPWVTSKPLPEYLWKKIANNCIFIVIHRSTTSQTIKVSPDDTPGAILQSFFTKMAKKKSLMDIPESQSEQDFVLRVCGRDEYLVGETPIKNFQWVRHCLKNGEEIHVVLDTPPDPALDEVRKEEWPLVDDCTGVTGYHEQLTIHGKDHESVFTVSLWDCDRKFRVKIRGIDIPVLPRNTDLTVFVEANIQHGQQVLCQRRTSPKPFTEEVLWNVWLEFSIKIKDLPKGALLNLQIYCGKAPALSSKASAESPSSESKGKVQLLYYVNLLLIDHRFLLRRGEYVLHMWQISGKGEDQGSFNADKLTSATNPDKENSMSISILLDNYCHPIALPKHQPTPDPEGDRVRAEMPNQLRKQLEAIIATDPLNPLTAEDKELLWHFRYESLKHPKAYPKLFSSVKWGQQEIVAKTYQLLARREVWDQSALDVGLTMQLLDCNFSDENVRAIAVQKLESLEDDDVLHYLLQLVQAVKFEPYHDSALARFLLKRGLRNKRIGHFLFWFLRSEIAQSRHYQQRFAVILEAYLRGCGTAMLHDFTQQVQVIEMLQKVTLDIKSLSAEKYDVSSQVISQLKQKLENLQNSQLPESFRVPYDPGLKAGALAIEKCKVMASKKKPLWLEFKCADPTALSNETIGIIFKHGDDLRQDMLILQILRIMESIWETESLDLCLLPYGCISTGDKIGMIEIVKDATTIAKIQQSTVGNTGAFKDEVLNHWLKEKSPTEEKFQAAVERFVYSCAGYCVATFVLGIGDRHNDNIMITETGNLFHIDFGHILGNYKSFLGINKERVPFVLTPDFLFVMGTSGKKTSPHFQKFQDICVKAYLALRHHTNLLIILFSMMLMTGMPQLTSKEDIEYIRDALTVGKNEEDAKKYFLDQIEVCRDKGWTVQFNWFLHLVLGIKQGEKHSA
Conditions: not given
As for `Cc1cc(-c2ccn3nc(N)c(C(=O)N[C@@H]4CC[C@@H](O)C4)c3n2)cc2c1C(=O)N([C@@H](C)C1CC1)C2`, the IC50 came to 4.2 nM.

Regarding `Cc1cc(-c2ccn3nc(N)c(C(=O)N[C@H](C)CO)c3n2)cc2c1C(=O)N([C@@H](C)C1CC1)C2`, the half-maximal inhibitory concentration (IC50) is 3.5 nM.

As to `Cc1cc(-c2ccn3nc(N)c(C(=O)N[C@H]4CC[C@H](O)CC4)c3n2)cc2c1C(=O)N([C@@H](C)C1CC1)C2`, the half-inhibitory concentration (IC50) came to 1.2 nM.

For `C[C@@H](C1CC1)N1Cc2cc(-c3ccn4nc(N)c(C(=O)NC5CC5)c4n3)cc(C(F)(F)F)c2C1=O`, the IC50 amounted to 3.6 nM.

Test system in a further data set: not listed separately
Briefly: Metabolic stability in rat hepatocyte assessed as intrinsic clearance per 10^8 cells at 0.5 uM by LC-MS/MS analysis. The format is ADME, cell-based. The settings on record: hepatocytes.
With `Cc1cc(-c2ccn3nc(N)c(C(=O)N[C@@H]4CC[C@@H](O)C4)c3n2)cc2c1C(=O)N([C@@H](C)C1CC1)C2`, the hepatocyte intrinsic clearance stood at 24.6 µL/min.

Regarding `Cc1cc(-c2ccn3nc(N)c(C(=O)N[C@H](C)CO)c3n2)cc2c1C(=O)N([C@@H](C)C1CC1)C2`, the hepatocyte intrinsic clearance was under 1.2 µL/min.

`Cc1cc(-c2ccn3nc(N)c(C(=O)N[C@H]4CC[C@H](O)CC4)c3n2)cc2c1C(=O)N([C@@H](C)C1CC1)C2`: the hepatocyte intrinsic clearance came out at 10.8 µL/min.

Consider `C[C@@H](C1CC1)N1Cc2cc(-c3ccn4nc(N)c(C(=O)NC5CC5)c4n3)cc(C(F)(F)F)c2C1=O`, for which the hepatocyte intrinsic clearance was under 1.2 µL/min.

For the next data set, the target named is T2, Phosphatidylinositol 4,5-bisphosphate 3-kinase catalytic subunit gamma isoform. Briefly: Inhibition of PI3Kgamma (unknown origin) in […] stimulated human THP-1 cells assessed as reduction in Akt phosphorylation level at Ser473 residue preincubated for 60 mins followed by rhMCP-1 stimulation and measured after 2 mins by AlphaLisa assay. Type of data set: cell-based.
Conditions: not given
A general note: In Alpha technology, singlet oxygen from a donor bead excites a nearby acceptor bead.
As to `Cc1cc(-c2ccn3nc(N)c(C(=O)N[C@@H]4CC[C@@H](O)C4)c3n2)cc2c1C(=O)N([C@@H](C)C1CC1)C2`, the concentration for half-maximal inhibition (IC50) turned out to be 82 nM.

As for `Cc1cc(-c2ccn3nc(N)c(C(=O)N[C@H](C)CO)c3n2)cc2c1C(=O)N([C@@H](C)C1CC1)C2`, the 50% inhibitory concentration (IC50) turned out to be 186 nM.

On to `Cc1cc(-c2ccn3nc(N)c(C(=O)N[C@H]4CC[C@H](O)CC4)c3n2)cc2c1C(=O)N([C@@H](C)C1CC1)C2`, for which the IC50 was 106 nM.

Take `C[C@@H](C1CC1)N1Cc2cc(-c3ccn4nc(N)c(C(=O)NC5CC5)c4n3)cc(C(F)(F)F)c2C1=O`: the IC50 was found to be 103 nM.

Another data set has as its target CYP3A4 (Homo sapiens, UniProt P08684). Briefly: in vitro. The note with it: human liver microsomes, probe midazolam. (Microsomes from liver hold many membrane-bound enzymes, among them those of drug oxidation.)
Description: Time dependent inhibition of CYP3A4 in human liver microsomes at 10 uM using midazolam as substrate preincubated for 30 mins in presence of NADPH by LC/MS/MS analysis relative to control
For the molecule `Cc1cc(-c2ccn3nc(N)c(C(=O)N[C@@H]4CC[C@@H](O)C4)c3n2)cc2c1C(=O)N([C@@H](C)C1CC1)C2`, the inhibition at 30 min, 10 µM worked out at 14%.

Take `Cc1cc(-c2ccn3nc(N)c(C(=O)N[C@H](C)CO)c3n2)cc2c1C(=O)N([C@@H](C)C1CC1)C2`: the inhibition at 30 min, 10 µM stood at 19%.

For `Cc1cc(-c2ccn3nc(N)c(C(=O)N[C@H]4CC[C@H](O)CC4)c3n2)cc2c1C(=O)N([C@@H](C)C1CC1)C2`, the inhibition at 30 min, 10 µM came to 26%.

As to `C[C@@H](C1CC1)N1Cc2cc(-c3ccn4nc(N)c(C(=O)NC5CC5)c4n3)cc(C(F)(F)F)c2C1=O`, the inhibition at 30 min, 10 µM was determined as 7%.
